Earlier results, collected in patent US20240269237A1, “PHARMACEUTICAL COMPOSITION AND KIT COMPRISING AN IMMUNOMODULATORY SUBSTANCE FOR TREATING DISEASES” (ellennbe GmbH, priority 2021, published 2024).

Experiments:
[1] = tested on: perfusion of the skin; conditions: healthy subjects
[2] = tested on: rheumatoid arthritis; conditions: for adverse effects of earlier treatment: Patient 7, history, regimen of MTX and upadacitinib tried a second time
[3] = tested on: ankylosing spondylitis (Bechterew's disease); conditions: for tolerability of earlier TNF-α inhibitors: human, in vivo; for effect of earlier treatment with biologics: Patient 11, history, within half a year the biologics lost their effect

COC(=O)c1cccnc1 [MN, methyl nicotinate]
perfusion response ([1]; 50 μl of 20 mmol/l topically): reproducible perfusion response
time course of perfusion increase ([1]; topical application): reaches a stable plateau phase after five minutes

CN(Cc1cnc2nc(N)nc(N)c2n1)c1ccc(C(=O)N[C@@H](CCC(=O)O)C(=O)O)cc1 [MTX, methotrexate]
adverse effects of earlier treatment [2]: severe adverse effects (tendency to fibrosis in the lungs and sinusitis)

CC[C@@H]1CN(C(=O)NCC(F)(F)F)C[C@@H]1c1cnc2cnc3[nH]ccc3n12 [upadacitinib]
adverse effects of earlier treatment [2]: severe adverse effects (tendency to fibrosis in the lungs and sinusitis)

Remicade®: TNF-α inhibitor
tolerability of earlier TNF-α inhibitors [3]: strong adverse side effects

Symponi®: TNF-α inhibitor
tolerability of earlier TNF-α inhibitors [3]: strong adverse side effects

adalinumab [Humira®]
effect of earlier treatment with biologics [3]: little effect from the outset

etanercept [Enbrel®]
tolerability of earlier TNF-α inhibitors [3]: strong adverse side effects

golimumab [Simponi®]
effect of earlier treatment with biologics [3]: little effect from the outset

tocilizumab
efficacy of basic treatment ([2]; Patient 7, 162 mg per week): only partially efficient
